Source: patent US7102000B2, “Heterocyclic amide derivatives for the treatment of diabetes and other diseases” (Incyte San Diego Inc., priority 2002, dated 2006)
Counter-ions that a name gives are not always drawn.

Assays:
KKA^y mice = assay: Oral treatment of type 2 diabetes in KKA^y mice (serum glucose, triglyceride, cholesterol); type: in vivo, mouse
From the text: The procedure for this in-vivo assay for anti-diabetes activity was described in detail by Iwatsuka, et al. (1970 General Survey of Diabetic Features of Yellow KK Mice. Endocrinol. Japon. 17: 23–35, incorporated herein in its entirety by reference).
Experimental Procedures: Six to eight week-old male KKA^y mice (obtained from Jackson Labs of Bar Harbord, Me.) were housed in a fixed 12–12-hr artificial light-dark cycle, and maintained on a standard rodent diet provided ad libitum. Animals were allowed two days to acclimate in this experimental environment prior to the initiation of the study.
Prior to initiation of treatment with the compounds of the invention, the animals were bled from the tail vein (100–200 μL of whole blood) and serum levels of glucose and triglycerides were measured in duplicate (Trinder kits; Sigma, St. Louis, Mo.). Based on these initial measures, animals were sorted into groups with approximately the same average serum glucose levels. Once sorted, the animals were housed one per cage and provided rodent diet ad libitum. Unless otherwise indicated, compounds were suspended in sesame oil, and administered by oral gavage once daily to animals in a volume of 3 ml/kg/dose.
Treatment Group A (n=5/group): (See Results in FIG. 2a) • 1) KKA^y vehicle control (sesame oil) • 2) Compound 1 (3 mg/kg) • 3) Compound 1 (10 mg/kg) • 4) Compound 2 (3 mg/kg) • 5) Compound 2 (10 mg/kg)
Treatment Group B (n=6/group): (See Results in FIG. 2b) • 1) KKA^y vehicle control (sesame oil) • 2) Compound 11 (15 mg/kg)
Treatment Group C (n=6/group): (See Results in FIG. 2c) • 1) KKA^y vehicle control (sesame oil) • 2) Compound 13 (15 mg/kg)
Treatment Group D (n=6/group): (See Results in FIG. 2d) • 1) KKA^y vehicle control (CMC) • 2) Compound 25 (3 mg/kg, CMC) Compound 25 was suspended in a solution of carboxymethyl cellulose (CMC; 1% carboxy methyl cellulose in H2O, with 10% polyethelene glycol 400), and administered to animals in a volume of 5 ml/kg/dose.
Treatment Group E (n=5/group): (See Results in FIG. 2e) • 1) KKA^y vehicle control (10% HPβCD) • 2) Compound 25 (1 mg/kg) • 3) Compound 25 (3 mg/kg) • 4) Compound 25 (10 mg/kg) Compound 25 was dissolved in a 10% hydroxy propyl beta cyclodextrin solution, and administered to animals in a volume of 10 ml/kg/dose.
Serum glucose, triglyceride and/or cholesterol levels were measured in duplicate. The blood is kept at room temperature to allow coagulation, after which the serum is separated and assayed for glucose, triglyceride and/or cholesterol levels. As shown in FIGS. 2a–2d all of the compounds tested reduced serum glucose and triglyceride levels, some with doses as low as 3 mg/kg when administered once a day.

[1] = tested on: diet-induced hypercholesterolemic Sprague Dawley rats; assay: Diet-induced hypercholesterolemia in wild type Sprague Dawley rats (total, HDL, LDL cholesterol); type: in vivo, rat; details: Sprague Dawley rats on atherogenic diet, oral once daily, day 5, FIGS. 5a–c
From the text: Experimental Procedure: Six week-old male Sprague Dawley rats (obtained from Harlan of San Diego, Calif.) were housed in a fixed 12—12-hr artificial light-dark cycle, and maintained on a high cholesterol atherogenic diet (Paigen's Diet, obtained from Research Diet Inc. of New Brounswick, N.J.) was provided ad libitum. Animals were allowed six days to acclimate in this experimental environment prior to the initiation of the study.
Prior to initiation of treatment, the animals were bled from the tail vein (100–200 μL of whole blood) and serum levels of cholesterol were measured in duplicate (Cholesterol Infinity kits; Sigma, St. Louis, Mo.). Based on these initial measures, animals were sorted into groups with approximately the same average total cholesterol levels. Once sorted, the animals were housed three per cage and maintained on Paigen's diet ad libitum. All compounds to be tested were suspended in sesame oil and administered in a final volume of 3 ml/kg. Drug is administered by oral gavage once daily at the beginning of the artificial light cycle. To obtain a base line for lipid measurement, a control group maintained on standart rodent diet is included (lean control).
Treatment Group A (n=6/group): (See Results in FIG. 5a) • 1) Lean control (Sesame Oil) • 2) Control • 3) Compound 2 (0.3 mg/kg) • 4) Compound 2 (1 mg/kg) • 5) Compound 2 (3 mg/kg)
Treatment Group B (n=6/group): (See Results in FIG. 5b) • 1) Lean control (Sesame Oil) • 2) Control • 3) Compound 6 (3 mg/kg)
Treatment Group C (n=6/group): (See Results in FIG. 5c) • 1) Lean control (10% HPβCD) • 2) Control • 3) Compound 25 (1 mg/kg) • 4) Compound 25 (3 mg/kg) • 5) Compound 25 (10 mg/kg) • 6) Compound 25 (15 mg/kg) • The compounds were dissolved in a 10% hydroxy propyl beta cyclodextrin solution, and administered to animals in a volume of 10 ml/kg/dose.
To monitor the effect of the tested compounds, animals were bled from the tail vein at the end of the dark cycle on days 0 (for sorting) and day 5 of the treatment period. Fed serum cholesterol levels were measured in duplicate. The blood is kept at room temperature to allow coagulation, after which the serum is separated and assayed for total cholesterol (Infinity reagent, Sigma), HDL cholesterol (using HDL precipitating reagent and infinity reagent, Sigma) and LDL cholesterol (EZLDL kit, Sigma). As shown in FIGS. 5a–c, all compounds tested show significant reduction in total and LDL cholesterol levels and a significant increase in HDL cholesterol levels compared to high fat fed control animals.

[2] = tested on: carcinogen induced mammary tumors; assay: Progression of carcinogen induced mammary tumors in Sprague Dawley rats; type: in vivo, rat; details: oral once daily for four weeks; for growth / progression of mammary (breast cancer) tumors: vs vehicle treated controls; for growth / progression of mammary (breast cancer) tumors / regression of tumors / number of static tumors: FIG. 6; for number of static tumors: compared to control animals
Method: Procedure: Five week-old female Sprague Dawley rats (Harlan) were housed in a fixed 12–12-hr artificial light-dark cycle, and maintained on a standard rodent diet provided ad libitum. Animals were allowed two days to acclimate in this experimental environment prior to the initiation of the study.
To induce mammary tumors, the female […] were injected intraperitoneally with the carcinogen n-nitroso-n-methylurea, in a single dose of 50 mg/kg in acidified normal saline (pH 4 w/acetic acid) at a final volume of 10 mg/ml (5 ml/kg). After eight weeks, mammary tumors are detected, and the tumor bearing females are sorted into treatment groups. Once sorted, the animals were housed four per cage and provided rodent diet ad libitum. All animals are treated with compound 1 or a vehicle for four weeks, during which time changes in tumor size are monitored. Tumors were classified as regressing, static or progressing.
Treatment groups (n=8/group): • 1) Control (sesame oil) • 2) Compound 6 (20 mg/kg) • 3) Compound 11 (100 mg/kg) • 4) Compound 13 (50 mg/kg) • 5) Compound 24 (50 mg/kg) • 6) Compound 25 (20 mg/kg) • 7) Compound 25 (100 mg/kg)
All of the compounds tested were suspended in sesame oil, and administered to animals in a volume of 3 ml/kg/dose, except compound 25 which was dissolved in a 10% hydroxy propyl beta cyclodextrin solution, and administered to animals in a volume of 10 ml/kg/dose. All treatments were administered by oral gavage once daily for four weeks.
To monitor the effect of the tested compound, animals were examined for mammary tumors once every week. Tumors were classified into one of three categories, progressing, static or regressing.

db/db mutant mice = assay: Oral treatment of type 2 diabetes in db/db mutant mice (serum glucose, triglyceride); type: in vivo, mouse
Method: Experimental Procedure: Seven week-old female db/db mutant mice (C57BL/KsJ-db +/+m; Jackson Labs, Bar Harbour, Me.) were housed in a fixed 12—12-hr artificial light-dark cycle, and maintained on a standard high fat diet (containing at least 11% crude fat) provided ad libitum (Teklad S-2335). Animals were allowed two days to acclimate in this experimental environment prior to the initiation of the study. Prior to initiation of treatment, the animals were bled from the tail vein (100–200 μL of whole blood) and serum levels of glucose and triglycerides were measured in duplicate (Trinder kits; Sigma, St. Louis, Mo.). Based on these initial measures, animals were sorted into treatment groups with approximately the same average serum glucose levels. Once sorted, the animals were housed five per cage and provided high fat rodent diet ad libitum.
Treatment Groups (n=5/group): • 1) db/db control (CMC) • 2) Compound 25 (0.1 mg/kg, in CMC) • 3) Compound 25 (0.3 mg/kg, in CMC) • 4) Compound 25 (1 mg/kg, in CMC)
Compound 25 was suspended in a solution of carboxymethyl cellulose (CMC; 1% carboxy methyl cellulose in H2O, with 10% polyethelene glycol 400), and administered to animals in a volume of 5 ml/kg/dose. The drug is administered by oral gavage once daily at the beginning of the artificial light cycle.
To monitor the effect of the tested compounds, animals were bled following a three-hour fast at the end of the dark cycle on days 0, 7, 14 of the treatment period. Fasting serum glucose and triglyceride levels were measured in duplicate. The blood is kept at room temperature to allow coagulation, after which the serum is separated and. assayed for glucose and triglyceride levels.

[3] = Oral bioavailability, single dose pharmacokinetic study in rats (plasma concentration by HPLC); type: in vivo, Sprague Dawley rats; details: rat
From the text: Oral bioavailability is an important pharmaceutical characteristic for a compound to advance through drug development. A basic assessment of the oral bioavailability of a compound can be done in a single dose pharmacokinetic study in wild type rats.
Six to eight week-old male Sprague Dawley rats (Harlan) were housed in a fixed 12–12- hr artificial light-dark cycle, and maintained on a standard rodent diet provided ad libitum. Animals were allowed two days to acclimate in this experimental environment prior to the initiation of the study. Compounds 24 and 25 were dissolved in a 10% hydroxypropyl beta cyclodextrin solution and administered by oral gavage in a final dose of 10 mg/kg in a volume of 5 ml/kg. Treatment groups were divided as follows:
Treatment groups(n=3/group): • 1) Compound 24 (10 mg/kg) • 2) Compound 25 (10 mg/kg)
Each animal received a single treatment, after which, the animal was bled from the tail vein at the following time points: 0.5, 1, 2, 4, 6, 9, 12, and 26 hours after treatment. To measure the concentration of each compound in plasma, blood samples were collected in heparin-coated tubes, and the plasma was isolated and analyzed by HPLC.

[4] = KKA^y mice, oral once daily, vs control mice, FIGS. 2a–d
[5] = oral once daily in CMC, compared to control animals, FIG. 3
[6] = KKA^y mice, 1, 3, 10 mg/kg oral in 10% HPβCD, following 4 weeks of treatment, FIG. 2e

Row | SMILES | serum glucose level (KKA^y mice; [4]) | serum triglyceride level (KKA^y mice; [4]) | growth / progression of mammary (breast cancer) tumors [2] | regression of tumors [2] | number of static tumors [2] | also measured
1 | Cc1cc2c(cc1-c1cc(/C=C3\SC(=O)NC3=O)ccc1OC(F)(F)F)N(C)C(=O)CC2(C)C [Compound 1, 5-[3-(1,4,4,6-Tetramethyl-2-oxo-1,2,3,4-tetrahydro-quinolin-7-yl)-4-trifluoromethoxy-benzylidene]-thiazolidine-2,4-dione] | decrease | decrease |  |  |  | 
2 | CCN1C(=O)CC(C)(C)c2cc(C)c(-c3cc(/C=C4\SC(=O)NC4=O)ccc3Cl)cc21 [Compound 6, 5-[3-(1-Ethyl-4,4,6-trimethyl-2-oxo-1,2,3,4-tetrahydro-quinolin-7-yl)-4-chloro-benzylidene]-thiazolidine-2,4-dione] |  |  | slow or cause regression |  |  | HDL cholesterol [1]: increasing; LDL cholesterol [1]: decrease; total cholesterol [1]: decrease
3 | Cc1cc2c(cc1-c1cc(/C=C3\SC(=O)NC3=O)ccc1OC(F)(F)F)N(C(C)C)C(=O)CC2(C)C [Compound 11, 5-[3-(1-Isopropyl-4,4,6-trimethyl-2-oxo-1,2,3,4-tetrahydro-quinolin-7-yl)-4-trifluoromethoxy-benzylidene]-thiazolidine-2,4-dione] | decrease | decrease | slow or cause regression | without causing any regressions | only increase the number of static tumors | 
4 | CCN1C(=O)CC(C)(C)c2cc(C)c(-c3c(F)c(/C=C4\SC(=O)NC4=O)cc(F)c3OC)cc21 [Compound 13, 5-[3-(1-Ethyl-4,4,6-trimethyl-2-oxo-1,2,3,4-tetrahydro-quinolin-7-yl)-2,5-difluoro-4-methoxy-benzylidene]-thiazolidine-2,4-dione] | decrease | decrease | slow or cause regression | without causing any regressions | only increase the number of static tumors | 
5 | CCN1C(=O)CC(C)(C)c2cc(C)c(-c3cc(/C=C4\SC(=O)NC4=O)ccc3OC(F)(F)F)cc21 [Compound 25, 5-[3-(1-Ethyl-4,4,6-trimethyl-2-oxo-1,2,3,4-tetrahydro-quinolin-7-yl)-4-trifluoromethoxy-benzylidene]-thiazolidine-2,4-dione, TRIS Salt] |  |  | slow or cause regression | caused the regression of tumors |  | dose ameliorating the symptoms of diabetes (as low as) (db/db mutant mice; once daily oral): ≥ 0.3 mg/kg; fasting serum glucose (db/db mutant mice; [5]): reduced; fasting serum triglyceride (db/db mutant mice; [5]): reduced; concentration of compound in plasma ([3]; single oral dose 10 mg/kg in 10% HPβCD, 0.5–26 hours, FIG. 7): significantly higher concentration; oral bioavailability ([3]; single oral dose 10 mg/kg, Compound 25 over Compound 24): improved bioavailability; serum glucose level (KKA^y mice; [6]): unexpectedly strong and simultaneous reduction; serum total cholesterol level (KKA^y mice; [6]): unexpectedly strong and simultaneous reduction; serum triglyceride level (KKA^y mice; [6]): unexpectedly strong and simultaneous reduction; dose causing regression of tumors (as low as) [2]: ≥ 20 mg/kg
